Test results taken from patent US11180487B2, “Substituted cyanoindoline derivatives as NIK inhibitors” (Janssen Pharmaceutica NV, priority 2016, dated 2021).
Where two headings read alike, the source gives them in different places.

Tests used:
[1] = target: recombinant human NF-kappaB-inducing kinase (NIK/MAP3K14) (Homo sapiens, UniProt Q99558); experiment: Inhibition of auto-phosphorylation of recombinant human NIK/MAP3K14 activity (AlphaScreen), Biological Assay A; type: biochemical; conditions: averaged values over all measurements on all batches
Summary of the method: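 GST-tagged enzyme (0.2 nM) incubated with compound and 25 μM ATP in 50 mM Tris pH 7.5, 5 mM MgCl2, 1 mM EGTA, 1 mM DTT, 0.1 mM Na3VO4, 1% DMSO, 1 h at 25 °C. Stopped with anti-phospho-IKK Ser176/180 antibody; AlphaScreen bead read, blank-subtracted, IC50 from sigmoidal fit.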

[2] = system: P-IKKα levels in L363 (NIK translocated multiple myeloma) cells; experiment: Effect of compounds on P-IKKα levels in L363 cells (Mesoscale sandwich immuno-assay), Biological Assay B; type: cell-based, human; conditions: 2 hr treatment, averaged values, read-out: Inhibition of pIKKα_L-363 (IC50 (nM))
Summary of the method: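 L363 NIK-translocated myeloma cells primed 24 h with 1 μg/ml BAFF (stock), then treated 2 h with compound (1% DMSO, 8-point 1:3 dilutions). Lysate P-IKKα measured by Mesoscale sandwich immunoassay; MG132+BAFF controls, blank with 10 μM ADS125117 subtracted. IC50 from sigmoidal fit of % inhibition versus log concentration.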

[3] = system: JJN-3 (NIK translocated) multiple myeloma cells; experiment: Antiproliferative activity on JJN-3 multiple myeloma cells (CellTiter-Glo, 96 hr), Biological Assay C; type: cell-based, human; conditions: JJN-3 (NIK translocated) cells, averaged values, read-out: JJN-3 Proliferation inhibition (IC50 (nM))
Summary of the method: (§1)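 JJN-3 and KMS12-BM cells in RPMI 1640 with 10% FCS were plated at 15000–20000 cells/well and treated 96 h with a 9-point 1:3 dilution series (0.3% DMSO). Viability read by CellTiter-Glo luminescence, blank (time-zero cells) subtracted, expressed as % of untreated control; duplicate wells.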

[4] = system: KMS12-BM (NIK WT) multiple myeloma cells; experiment: Antiproliferative activity on KMS12-BM multiple myeloma cells (CellTiter-Glo, 96 hr), Biological Assay C; type: cell-based, human; conditions: averaged values, read-out: KMS-12 Proliferation inhibition (IC50 (nM))
Summary of the method: as §1

Chain of recombinant human NF-kappaB-inducing kinase (NIK/MAP3K14) (Q99558 whole entry): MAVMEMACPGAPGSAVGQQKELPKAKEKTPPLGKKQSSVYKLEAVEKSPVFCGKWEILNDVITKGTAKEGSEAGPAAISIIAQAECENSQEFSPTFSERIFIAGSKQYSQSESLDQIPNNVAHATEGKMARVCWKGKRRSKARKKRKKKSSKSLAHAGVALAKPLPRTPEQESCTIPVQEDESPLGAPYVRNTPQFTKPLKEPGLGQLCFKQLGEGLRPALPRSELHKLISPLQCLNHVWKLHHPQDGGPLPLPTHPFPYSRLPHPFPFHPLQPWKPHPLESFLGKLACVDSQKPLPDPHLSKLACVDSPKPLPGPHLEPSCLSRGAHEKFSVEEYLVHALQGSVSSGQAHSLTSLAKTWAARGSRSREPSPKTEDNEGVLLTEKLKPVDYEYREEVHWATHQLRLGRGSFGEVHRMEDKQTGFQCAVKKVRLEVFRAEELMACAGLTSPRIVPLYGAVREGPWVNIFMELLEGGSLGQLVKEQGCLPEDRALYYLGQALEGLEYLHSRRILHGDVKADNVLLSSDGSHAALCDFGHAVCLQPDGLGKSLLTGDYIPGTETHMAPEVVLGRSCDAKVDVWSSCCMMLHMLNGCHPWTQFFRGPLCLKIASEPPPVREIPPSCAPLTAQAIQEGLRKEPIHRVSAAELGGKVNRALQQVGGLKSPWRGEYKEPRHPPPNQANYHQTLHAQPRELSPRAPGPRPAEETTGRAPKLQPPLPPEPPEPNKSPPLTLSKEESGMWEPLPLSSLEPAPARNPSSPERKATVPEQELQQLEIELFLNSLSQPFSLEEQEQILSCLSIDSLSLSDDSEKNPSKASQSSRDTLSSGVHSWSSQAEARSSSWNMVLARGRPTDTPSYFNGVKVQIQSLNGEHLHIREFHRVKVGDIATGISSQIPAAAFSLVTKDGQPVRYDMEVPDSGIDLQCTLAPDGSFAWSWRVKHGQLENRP

SMILES | IC50 [1] [nM] | IC50 ([2]; Homo sapiens, L-363, 2 h) [nM] | IC50 ([3]; Homo sapiens, JJN-3, 96 h) [nM] | IC50 ([4]; Homo sapiens, KMS-12-BM, 96 h) [nM] | melting point [°C] | IC50 [3] [nM] | IC50 [4] [nM] | IC50 [2] [nM]
CN1CCC(Oc2ccc(Cl)cc2Nc2nccc(-c3cc(C#N)c4c(c3)C(C)(C)CN4)n2)CC1 [Compound 80] | 15.2 | 209 | 124 | 1000 | 192 | – | – | –
C[C@]1(CO)CNc2c(C#N)cc(-c3ccnc(Nc4cc(C#N)c(C5CCOCC5)cc4OCC4CC4)n3)cc21 [Compound 19] | 27.5 | 38.9 | 1950 | > 10000 | 284 | – | – | –
Cc1ccc(C#N)cc1Nc1nccc(-c2cc(C#N)c3c(c2)[C@@](C)(CO)CN3)n1 [Compound 132] | 1.3 | – | – | – | 234 | 128 | 5010 | 2.2
Cc1ccc(C#N)cc1Nc1nccc(-c2cc(C#N)c3c(c2)[C@@](C)(COC(=O)CN)CN3)n1 [Compound 137] | 6 | 2.7 | 545 | ~10000 | 290 | – | – | –
COCCOc1ccc(C#N)cc1Nc1nccc(-c2cc(C#N)c3c(c2)[C@@](C)(COC(C)=O)CN3)n1 [Compound 127] | 129 | 11.5 | 570 | > 10000 | 158 | – | – | –
[2H]C([2H])(O)[C@@]1(C)CNc2c(C#N)cc(-c3ccnc(Nc4cc(C#N)ccc4C)n3)cc21 [Compound 136] | 1.7 | < 0.66 | 269 | > 10000 | 219 | – | – | –
CCCCc1ccc(C#N)cc1Nc1nccc(-c2cc(C#N)c3c(c2)[C@@](C)(CO)CN3)n1 [Compound 15] | 11 | ~269 | 117 | > 10000 | 110 | – | – | –
C[C@]1(CO)CNc2c(C#N)cc(-c3ccnc(Nc4cc(C#N)ccc4OCCO)n3)cc21 [Compound 8] | 1.3 | 32.4 | 87 | > 10000 | 184 | – | – | –
Cc1ccc(C#N)cc1Nc1nccc(-c2cc(C#N)c3c(c2)[C@](C)(CO)CN3)n1 [Compound 65] | 4.1 | 103 | 1100 | > 10000 | 218 | – | – | –
Cc1ccc(C#N)cc1Nc1nccc(-c2cc(C#N)c3c(c2)[C@@](C)(COC(=O)[C@@H](C)N)CN3)n1 [Compound 141] | 8.7 | 2.2 | 33 | > 10000 | 212 | – | – | –
CC(C)Oc1cc(P(C)(C)=O)ccc1Nc1nccc(-c2cc(C#N)c3c(c2)[C@@](C)(CO)CN3)n1 [Compound 18] | 2.6 | 20 | 407 | ~8130 | 263 | – | – | –
COc1cc(N2CCC(O)CC2)c(Cl)cc1Nc1nccc(-c2cc(C#N)c3c(c2)C(C)(C)CN3)n1 [Compound 105] | 28.5 | 22.9 | 118 | ~6610 | > 250 | – | – | –
Cc1ccc(C#N)cc1Nc1nccc(-c2cc(C#N)c3c(c2)[C@@](C)(COC(=O)[C@@H](N)C(C)C)CN3)n1 [Compound 139] | 56.2 | 26.9 | 302 | ~8910 | 202 | – | – | –
COC(=O)c1cc(OC)c(Nc2nccc(-c3cc(C#N)c4c(c3)C(C)(C)CN4)n2)cc1Cl [Compound 106] | 63.1 | 123 | 1620 | > 10000 | 208 | – | – | –

Results, then the compound that gave them:

IC50 [1] [nM] | IC50 ([2]; Homo sapiens, L-363, 2 h) [nM] | IC50 ([3]; Homo sapiens, JJN-3, 96 h) [nM] | IC50 ([4]; Homo sapiens, KMS-12-BM, 96 h) [nM] | melting point [°C] | IC50 [3] [nM] | IC50 [4] [nM] | IC50 [2] [nM] | SMILES
1.6 | 3.1 | 23 | ~851 | 129 | – | – | – | CN1CCC(Oc2ccc(C#N)cc2Nc2nccc(-c3cc(C#N)c4c(c3)[C@@](C)(CO)CN4)n2)CC1 [Compound 223]
2.6 | 42.7 | 32 | 178 | 249 | – | – | – | CN(C)Cc1cc(Nc2nccc(-c3cc(C#N)c4c(c3)[C@@](C)(CO)CN4)n2)ccc1C1CCOCC1 [Compound 236]
2 | 2.6 | 42 | ~891 | 230 | – | – | – | Cc1cc(C2CCCN(C)C2)c(C#N)cc1Nc1nccc(-c2cc(C#N)c3c(c2)[C@@](C)(CO)CN3)n1 (single isomer, unassigned) [Compound 178]
3.2 | 1.2 | – | – | 222 | 14 | ~246 | – | Cc1cc(C2CCCN(C)C2)c(C#N)cc1Nc1nccc(-c2cc(C#N)c3c(c2)[C@@](C)(CO)CN3)n1 (stereo partly shown) [Compound 177]
6 | 4.8 | 33 | ~240 | 223 | – | – | – | Cc1c(CN2CC(C)OC(C)C2)cccc1Nc1nccc(-c2cc(C#N)c3c(c2)[C@@](C)(CO)CN3)n1 (stereo partly shown) [Compound 197]
1.7 | ~0.66 | 41 | > 10000 | 260 | – | – | – | COC(=O)c1cc(C#N)cc(Nc2nccc(-c3cc(C#N)c4c(c3)[C@@](C)(CO)CN4)n2)c1C [Compound 200]
4.3 | 33.1 | 74 | > 10000 | 298 | – | – | – | CN1CCN(Cc2ccc(C#N)cc2Nc2nccc(-c3cc(C#N)c4c(c3)[C@@](C)(CO)CN4)n2)CC1 [Compound 226]
19.9 | 5.2 | 78 | > 10000 | 186 | – | – | – | Cc1ccc(C#N)cc1Nc1nccc(-c2cc(C#N)c3c(c2)[C@@](C)(COC(=O)CN2CCOCC2)CN3)n1 [Compound 146]
9.1 | 7.1 | 501 | > 10000 | 209 | – | – | – | Cc1cc(F)c(C(=O)NCC2COC2)cc1Nc1nccc(-c2cc(C#N)c3c(c2)[C@@](C)(CO)CN3)n1 [Compound 183]
4.9 | 12.9 | 178 | ~7590 | 235 | – | – | – | CNC(=O)c1cc(Nc2nccc(-c3cc(C#N)c4c(c3)[C@@](C)(CO)CN4)n2)c(F)cc1OC1CC1 [Compound 157]
4.6 | 5.6 | 63 | ~550 | 222 | – | – | – | [2H]C([2H])(c1cccc(Nc2nccc(-c3cc(C#N)c4c(c3)[C@@](C)(CO)CN4)n2)c1C)N1CC(C)OC(C)C1 (stereo partly shown) [Compound 198]
6.2 | 1.9 | 30 | ~3720 | 210 | – | – | – | Cc1c(CN2CC(F)C2)cc(C#N)cc1Nc1nccc(-c2cc(C#N)c3c(c2)[C@@](C)(CO)CN3)n1 [Compound 195]
6.9 | 7.4 | 76 | > 10000 | 170 | – | – | – | Cc1c(Nc2nccc(-c3cc(C#N)c4c(c3)[C@@](C)(CO)CN4)n2)cccc1C(=O)N1CC(C)OC(C)C1 (stereo partly shown) [Compound 199]
14.5 | 14.8 | 132 | > 10000 | 254 | – | – | – | C[C@]1(CO)CNc2c(C#N)cc(-c3ccnc(Nc4cc(C#N)c(F)cc4OC4CC4)n3)cc21 [Compound 209]
8.7 | – | – | – | 256 | ~1000 | > 10000 | 8.3 | Cc1cc(F)c(C(=O)NC2CCOC2)cc1Nc1nccc(-c2cc(C#N)c3c(c2)[C@@](C)(CO)CN3)n1 (single isomer, unassigned) [Compound 169]
1.8 | 2.8 | 27 | ~191 | 226 | – | – | – | Cc1cc(C2CCN(C)CC2)c(C#N)cc1Nc1nccc(-c2cc(C#N)c3c(c2)[C@@](C)(CO)CN3)n1 [Compound 175]
6.5 | 10.7 | 389 | > 10000 | 234 | – | – | – | C[C@]1(CO)CNc2c(C#N)cc(-c3ccnc(Nc4cc(CO)c(F)cc4OC4CC4)n3)cc21 [Compound 208]
1.6 | 1.7 | 22 | > 10000 | 188 | – | – | – | Cc1c(CO)cc(C#N)cc1Nc1nccc(-c2cc(C#N)c3c(c2)[C@@](C)(CO)CN3)n1 [Compound 193]
